From publication PMC5395518, “Design, synthesis, and biological evaluation of the novel glycyrrhetinic acid-cinnamoyl hybrids as anti-tumor agents” (Chemistry Central Journal, 2016)

Columns and labels:
HepG2 cells = assay: MTT cytotoxicity assay, HepG2; format: cell-based, human; conditions: mean ± SD (n = 3)
From the text: (§1) HepG2 (human hepatocellular carcinoma), Hela (human cervical cancer), HT-29 (human colon carcinoma), MDCK (Madin–Darby canine kidney), H9C2 (rat myocardial cells) and HY926 were purchased from the Chinese Academy of Medical Sciences and Peking Union Medical College. All of these cell lines were maintained in RPMI-1640 (DMEM) supplemented with 10% (v/v) fetal bovine serum (FBS) and 1% (v/v) penicillin/streptomycin (Thermo Technologies, New York, NY, USA) under a humidified atmosphere containing 5% CO2 at 37 °C. To provide stock solutions which were used to prepare various concentrations of treatment media, GA and hybrids were added a volume of DMSO.
(§2) The cytotoxicity of these compounds was evaluated on three human cancer cell lines (HepG2, HT-29, Hela) and three non-tumor cells lines (MDCK, HY926, H9C2) and MTT assay was performed to detect the cell proliferation. Simply, exponentially growing cells were cultured in 96-well plates (3 × 10^3 cells/well). And the plates were placed in a humidified atmosphere for 72 h at 37 °C with 5% CO2. After added MTT solution (5 mg/mL) 20 μL to each well, the plate was incubated for a further 4 h. Then the cell supernatant was removed and 150 μL DMSO was added. Finally, the absorbance was determined at wavelength of 490 nm with the ELISA. Wells without drugs were used to be blanks. The IC50 values were calculated using Logit-method. The following Eq. (1) was proposed to calculate the inhibitory rate of cell growth:1 %inhibition=1-Sample group OD/Control group OD×100%

MDCK cells = assay: MTT cytotoxicity assay, MDCK (non-tumor); format: cell-based, canine; conditions: MTT, 72 h, mean ± SD (n = 3), non-tumor cells
From the text: as §1, §2

Hela cells = assay: MTT cytotoxicity assay, Hela; format: cell-based, human; conditions: MTT, 72 h, mean ± SD (n = 3)
From the text: as §1, §2

H9C2 cells = assay: MTT cytotoxicity assay, H9C2 (non-tumor); format: cell-based, rat; conditions: MTT, 72 h, mean ± SD (n = 3), non-tumor cells
From the text: as §1, §2

HY926 cells = assay: MTT cytotoxicity assay, HY926 (non-tumor); format: cell-based; conditions: MTT, 72 h, mean ± SD (n = 3), non-tumor cells
From the text: as §1, §2

HT-29 cells = assay: MTT cytotoxicity assay, HT-29; format: cell-based, human; conditions: mean ± SD (n = 3)
From the text: as §1, §2

Structure (SMILES) | IC50 (HepG2 cells; 72 h) | IC50 (MDCK cells) | IC50 (Hela cells) | IC50 (H9C2 cells) | IC50 (HY926 cells) | IC50 (HT-29 cells; 72 h) | IC50 (MDCK cells; listed as DDP) | IC50 (H9C2 cells; listed as DDP) | IC50 (HY926 cells; listed as DDP) | IC50 (HepG2 cells; Homo sapiens, HepG2, 72 h) | IC50 (MDCK cells; Canis lupus familiaris, MDCK) | IC50 (Hela cells; Homo sapiens, HeLa) | IC50 (H9C2 cells; Rattus norvegicus, H9c2) | IC50 (HT-29 cells; Homo sapiens, HT-29, 72 h)
COc1ccc(OC)c(/C=C/C(=O)OC2CCC3(C)C(CCC4(C)C3C(=O)C=C3C5CC(C)(C(=O)O)CCC5(C)CCC34C)C2(C)C)c1 (stereo not drawn) [Compound 7a, (2,5-Dimethoxy) cinnamoyl-3β-hydroxy-11-oxoolean-12-en-30-oic acid] | 25.4 ± 1.97 µM | > 50 µM | 28 ± 1.63 µM | > 50 µM | 45.1 ± 2.25 µM | 26.4 ± 1.96 µM |  |  |  |  |  |  |  | 
COc1ccc(C=CC(=O)OC2CCC3(C)C(CCC4(C)C3C(=O)C=C3C5CC(C)(C(=O)O)CCC5(C)CCC34C)C2(C)C)cc1 (stereo not drawn) [Compound 5a, (4-Methoxy) cinnamoyl-3β-hydroxy-11-oxoolean-12-en-30-oic acid] | 31.2 ± 1.34 µM | 21.7 ± 1.01 µM | 23.4 ± 1.38 µM | 36.1 ± 1.92 µM | > 50 µM | 33 ± 1.92 µM |  |  |  |  |  |  |  | 
COc1cccc(/C=C/C(=O)OC2CCC3(C)C(CCC4(C)C3C(=O)C=C3C5CC(C)(C(=O)O)CCC5(C)CCC34C)C2(C)C)c1 (stereo not drawn) [Compound 4a, (3-Methoxy) cinnamoyl-3β-hydroxy-11-oxoolean-12-en-30-oic acid] | 12.7 ± 1.1 µM | 22.2 ± 2.56 µM | 17.5 ± 1.52 µM | > 50 µM | 31 ± 1.87 µM | 14.9 ± 1.8 µM |  |  |  |  |  |  |  | 
CC1(C)[C@@H](OC(=O)/C=C/c2ccccc2)CC[C@]2(C)[C@H]3C(=O)C=C4[C@@H]5C[C@@](C)(C(=O)O)CC[C@]5(C)CC[C@@]4(C)[C@]3(C)CC[C@@H]12 [Compound 1a, Cinnamoyl-3β-hydroxy-11-oxoolean-12-en-30-oic acid] | 24.4 ± 1.39 µM | 22.6 ± 1.38 µM | 23.7 ± 2.98 µM | 46.1 ± 2.01 µM | 28.9 ± 1.85 µM | 22.3 ± 1.75 µM |  |  |  |  |  |  |  | 
N.N.[Cl][Pt][Cl] [DPP, cisplatin, reference compound] | 4.57 ± 0.85 µM | 9.97 ± 1.12 µM | 3.76 ± 0.38 µM | 5.31 ± 0.26 µM | 5.12 ± 0.71 µM | 5.28 ± 0.74 µM | < 10 µM | < 10 µM | < 10 µM |  |  |  |  | 
COc1cccc(CCC(=O)OC2CCC3(C)C(CCC4(C)C3C(=O)C=C3C5CC(C)(C(=O)O)CCC5(C)CCC34C)C2(C)C)c1OC (stereo not drawn) [Compound 2b, (2,3-Dimethoxy) phenylpropanoyl-3β-hydroxy-11-oxoolean-12-en-30-oic acid] | 33.1 ± 2.09 µM | 41.3 ± 1.48 µM | 23.1 ± 2.33 µM | 45.8 ± 1.8 µM | > 50 µM | 29.3 ± 2.22 µM |  |  |  |  |  |  |  | 
COc1cc(/C=C/C(=O)O[C@H]2CC[C@]3(C)[C@H]4C(=O)C=C5[C@@H]6C[C@@](C)(C(=O)O)CC[C@]6(C)CC[C@@]5(C)[C@]4(C)CC[C@H]3C2(C)C)cc(OC)c1OC [Compound 9a, (3,4,5-Trimethoxy) cinnamoyl-3β-hydroxy-11-oxoolean-12-en-30-oic acid] | 21.9 ± 1.41 µM | 27.7 ± 1.08 µM | 30.7 ± 1.89 µM | 47.4 ± 1.07 µM | 30.8 ± 1.37 µM | 25.5 ± 1.29 µM |  |  |  |  |  |  |  | 
CC1(C(=O)O)CCC2(C)CCC3(C)C(=CC(=O)C4C5(C)CCC(OC(=O)CCc6ccccc6)C(C)(C)C5CCC43C)C2C1 (stereo not drawn) [Compound 1b, Phenylpropanoyl-3β-hydroxy-11-oxoolean-12-en-30-oic acid] | 32.3 ± 1 µM | 33.3 ± 2.98 µM | 26.9 ± 1.74 µM | > 50 µM | 33.6 ± 3.09 µM | 28.6 ± 2.99 µM |  |  |  |  |  |  |  | 
COc1cc(CCC(=O)OC2CCC3(C)C(CCC4(C)C3C(=O)C=C3C5CC(C)(C(=O)O)CCC5(C)CCC34C)C2(C)C)cc(OC)c1OC (stereo not drawn) [Compound 4b, (3,4,5-Trimethoxy) phenylpropanoyl-3β-hydroxy-11-oxoolean-12-en-30-oic acid] | 22.4 ± 1.29 µM | > 30 µM | 28.7 ± 1.68 µM | > 50 µM | > 50 µM | 22.4 ± 1.2 µM |  |  |  |  |  |  |  | 
COc1ccccc1/C=C/C(=O)OC1CCC2(C)C(CCC3(C)C2C(=O)C=C2C4CC(C)(C(=O)O)CCC4(C)CCC23C)C1(C)C (stereo not drawn) [Compound 3a, (2-Methoxy) cinnamoyl-3β-hydroxy-11-oxoolean-12-en-30-oic acid] | 32 ± 1.9 µM | 22.9 ± 2.43 µM | 24.6 ± 1.72 µM | > 50 µM | > 50 µM | 22.2 ± 2.34 µM |  |  |  |  |  |  |  | 
COc1ccc(CCC(=O)O[C@H]2CC[C@]3(C)[C@H]4C(=O)C=C5[C@@H]6C[C@@](C)(C(=O)O)CC[C@]6(C)CC[C@@]5(C)[C@]4(C)CC[C@H]3C2(C)C)c(OC)c1OC [Compound 3b, (2,3,4-Trimethoxy) phenylpropanoyl-3β-hydroxy-11-oxoolean-12-en-30-oic acid] | 27.3 ± 1.95 µM | > 30 µM | 22.5 ± 2.16 µM | > 50 µM | 38.5 ± 2.02 µM | 26.2 ± 1.24 µM |  |  |  |  |  |  |  | 
Cc1ccc(/C=C/C(=O)OC2CCC3(C)C(CCC4(C)C3C(=O)C=C3C5CC(C)(C(=O)O)CCC5(C)CCC34C)C2(C)C)cc1 (stereo not drawn) [Compound 2a, (4-Methyl) cinnamoyl-3β-hydroxy-11-oxoolean-12-en-30-oic acid] | 22.1 ± 1.18 µM | 38 ± 1.81 µM | 14.2 ± 1.1 µM | > 50 µM | 27.6 ± 1.84 µM | 21.7 ± 1.81 µM |  |  |  |  |  |  |  | 
COc1cccc(/C=C/C(=O)OC2CCC3(C)C(CCC4(C)C3C(=O)C=C3C5CC(C)(C(=O)O)CCC5(C)CCC34C)C2(C)C)c1OC (stereo not drawn) [Compound 6a, (2,3-Dimethoxy) cinnamoyl-3β-hydroxy-11-oxoolean-12-en-30-oic acid] | 24.4 ± 1.44 µM | 33.7 ± 1.4 µM | 22.5 ± 2.08 µM | > 50 µM | 25 ± 1.38 µM | 24.4 ± 1.76 µM |  |  |  |  |  |  |  | 
CC1(C)[C@@H](O)CC[C@]2(C)[C@H]3C(=O)C=C4[C@@H]5C[C@@](C)(C(=O)O)CC[C@]5(C)CC[C@@]4(C)[C@]3(C)CC[C@@H]12 [GA, Glycyrrhetinic acid] |  |  |  |  | > 100 µM |  |  |  |  | > 50 µM | > 100 µM | > 50 µM | > 100 µM | > 50 µM
